Values after ≈ are worked out from the molar mass of the structure shown. Active and inactive are the calls of the source. No cut-off for these calls is given here.
Tests used:
[Candida] auris [1] = Antifungal activity against Candida auris COLO 01 A assessed as inhibition of fungal growth at highest concentration incubated for 24 to 48 hrs by CLSI protocol based broth microdilution method; assay type: functional, organism-based; conditions: Candidozyma auris, time 24-48 hrs
Candida parapsilosis [2] = assay: Antifungal activity against Candida parapsilosis ATCC 22019 assessed as inhibition of fungal growth at highest concentration incubated for 24 to 48 hrs by CLSI protocol based broth microdilution method; assay type: functional, organism-based; conditions: time 24-48 hrs
Nakaseomyces glabratus [3] = assay: Antifungal activity against Candida glabrata ATCC 2001 assessed as inhibition of fungal growth at highest concentration incubated for 24 to 48 hrs by CLSI protocol based broth microdilution method; assay type: functional, organism-based; conditions: time 24-48 hrs
Cryptococcus gattii VGI = assay: Antifungal activity against Cryptococcus gattii ATCC 24065 assessed as inhibition of fungal growth at highest concentration incubated for 24 to 48 hrs by CLSI protocol based broth microdilution method; assay type: functional; conditions: time 24-48 hrs
Pichia kudriavzevii [4] = assay: Antifungal activity against Candida krusei ATCC 20298 assessed as inhibition of fungal growth at highest concentration incubated for 24 to 48 hrs by CLSI protocol based broth microdilution method; assay type: functional, organism-based; conditions: time 24-48 hrs
[5] = Cytotoxicity against H9c2 cells assessed as inhibition of cell proliferation incubated for 72 hrs by resazurin dye based microplate reader analysis; assay type: toxicity; conditions: rat
Candida tropicalis [6] = assay: Antifungal activity against Candida tropicalis ATCC 750 assessed as inhibition of fungal growth at highest concentration incubated for 24 to 48 hrs by CLSI protocol based broth microdilution method; assay type: functional, organism-based; conditions: time 24-48 hrs
Candida albicans [7] = assay: Antifungal activity against Candida albicans SC5314 assessed as inhibition of fungal growth at highest concentration incubated for 24 to 48 hrs by CLSI protocol based broth microdilution method; assay type: functional, organism-based; conditions: time 24-48 hrs
[8] = Antifungal activity against Cryptococcus gattii ATCC 24065 assessed as inhibition of fungal growth incubated for 24 to 48 hrs by CLSI protocol based broth microdilution method; assay type: functional, Cryptococcus gattii VGI; conditions: time 24-48 hrs
Nakaseomyces glabratus [9] = assay: Antifungal activity against Candida glabrata ATCC 2001 assessed as inhibition of fungal growth incubated for 24 to 48 hrs by CLSI protocol based broth microdilution method; assay type: functional; conditions: time 24-48 hrs
[10] = Selectivity index, ratio of CC50 for cytotoxicity against […] H9c2 cells to MIC for antifungal activity against Cryptococcus gattii ATCC 24065; assay type: toxicity, cell-based; conditions: rat, read-out: Selectivity Index
[11] = Selectivity index, ratio of CC50 for cytotoxicity against […] H9c2 cells to MIC for antifungal activity against Candida glabrata ATCC 2001; assay type: toxicity, cell-based; conditions: rat, read-out: Selectivity Index
[12] = Selectivity index, ratio of CC50 for cytotoxicity against […] H9c2 cells to MIC for antifungal activity against Candida auris COLO 01 A; assay type: toxicity, cell-based; conditions: read-out: Selectivity Index
[Candida] auris [13] = Potency index, ratio of miconazole MIC to test compound MIC for antifungal activity against Candida auris COLO 01 A assessed as inhibition of fungal growth incubated for 24 to 48 hrs by CLSI protocol based broth microdilution method; assay type: functional, Candidozyma auris; conditions: time 24-48 hrs
[Candida] auris [14] = Antifungal activity against Candida auris COLO 01 A assessed as inhibition of fungal growth incubated for 24 to 48 hrs by CLSI protocol based broth microdilution method; assay type: functional; conditions: Candidozyma auris, time 24-48 hrs
[Candida] auris [15] = Potency index, ratio of fluconazole MIC to test compound MIC for antifungal activity against Candida auris COLO 01 A assessed as inhibition of fungal growth incubated for 24 to 48 hrs by CLSI protocol based broth microdilution method; assay type: functional, Candidozyma auris; conditions: time 24-48 hrs
[16] = target: T1, Lanosterol 14-alpha demethylase (Candida albicans (strain SC5314 / ATCC MYA-2876) (Yeast), UniProt P10613); assay: Inhibition of CYP51 in Candida albicans SC5314 assessed as reduction in ergosterol level at 2 fold MIC incubated overnight by spectrophotometric analysis
T1 sequence (P10613 whole entry): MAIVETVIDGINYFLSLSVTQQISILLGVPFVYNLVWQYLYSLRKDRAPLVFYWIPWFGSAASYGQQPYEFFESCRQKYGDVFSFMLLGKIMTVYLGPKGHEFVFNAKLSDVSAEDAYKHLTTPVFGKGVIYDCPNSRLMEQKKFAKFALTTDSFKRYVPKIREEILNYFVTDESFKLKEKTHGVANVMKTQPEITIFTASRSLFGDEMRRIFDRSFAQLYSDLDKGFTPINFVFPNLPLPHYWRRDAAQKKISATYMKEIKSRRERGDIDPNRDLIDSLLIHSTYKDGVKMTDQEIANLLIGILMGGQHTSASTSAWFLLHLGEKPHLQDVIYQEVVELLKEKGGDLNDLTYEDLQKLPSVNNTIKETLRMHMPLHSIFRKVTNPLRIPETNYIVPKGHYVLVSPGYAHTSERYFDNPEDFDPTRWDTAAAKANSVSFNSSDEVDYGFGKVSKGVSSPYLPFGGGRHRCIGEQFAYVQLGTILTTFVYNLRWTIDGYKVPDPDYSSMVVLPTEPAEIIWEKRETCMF

[17] = Selectivity index, ratio of CC50 for cytotoxicity against […] H9c2 cells to MIC for antifungal activity against Candida krusei ATCC 20298; assay type: toxicity, cell-based; conditions: read-out: Selectivity Index
Candida tropicalis [18] = assay: Antifungal activity against Candida tropicalis ATCC 750 assessed as inhibition of fungal growth incubated for 24 to 48 hrs by CLSI protocol based broth microdilution method; assay type: functional; conditions: time 24-48 hrs
Candida albicans [19] = assay: Potency index, ratio of miconazole MIC to test compound MIC for antifungal activity against Candida albicans SC5314 assessed as inhibition of fungal growth incubated for 24 to 48 hrs by CLSI protocol based broth microdilution method; assay type: functional; conditions: time 24-48 hrs
[20] = Selectivity index, ratio of CC50 for cytotoxicity against […] H9c2 cells to MIC for antifungal activity against Candida parapsilosis ATCC 22019; assay type: toxicity, cell-based; conditions: read-out: Selectivity Index
Candida parapsilosis [21] = assay: Antifungal activity against Candida parapsilosis ATCC 22019 assessed as inhibition of fungal growth incubated for 24 to 48 hrs by CLSI protocol based broth microdilution method; assay type: functional; conditions: Lodderomyces parapsilosis, time 24-48 hrs
[22] = Selectivity index, ratio of CC50 for cytotoxicity against […] H9c2 cells to MIC for antifungal activity against Candida tropicalis ATCC 750; assay type: toxicity, cell-based; conditions: read-out: Selectivity Index
Pichia kudriavzevii [23] = assay: Antifungal activity against Candida krusei ATCC 20298 assessed as inhibition of fungal growth incubated for 24 to 48 hrs by CLSI protocol based broth microdilution method; assay type: functional; conditions: time 24-48 hrs
[24] = Selectivity index, ratio of CC50 for cytotoxicity against […] H9c2 cells to MIC for antifungal activity against Candida albicans SC5314; assay type: toxicity, cell-based; conditions: read-out: Selectivity Index
Candida albicans [25] = assay: Antifungal activity against Candida albicans SC5314 assessed as inhibition of fungal growth incubated for 24 to 48 hrs by CLSI protocol based broth microdilution method; assay type: functional; conditions: time 24-48 hrs
[26] = target: T1, Lanosterol 14-alpha demethylase; assay: Inhibition of CYP51 in Candida albicans SC5314 assessed as reduction in ergosterol level at 3 fold MIC incubated overnight by spectrophotometric analysis

Row | SMILES | Activity ([Candida] auris [1]) | Activity (Candida parapsilosis [2]) | Activity (Nakaseomyces glabratus [3]) | Activity (Cryptococcus gattii VGI) | Activity (Pichia kudriavzevii [4]) | CC50 at 72 h [5] [µM] | Activity (Candida tropicalis [6]) | Activity (Candida albicans [7]) | MIC [8] [µM] | MIC (Nakaseomyces glabratus [9]) [µM] | other results
1 | CCCc1ccc(OCC(O)Cn2ccnc2)c(OC)c1 (configuration not stated) | inactive | inactive | inactive | inactive | inactive | 453 | inactive | inactive |  |  | 
2 | CCCc1ccc(OCC(O)Cn2cncn2)c(OC)c1 (configuration not stated) | inactive | inactive | inactive | inactive | inactive | 553 | inactive | inactive |  |  | 
3 | C=CCc1ccc(OCC(Cn2cncn2)OC(=O)c2ccc(Cl)cc2)c(OC)c1 (configuration not stated) | inactive | inactive | inactive | inactive | inactive | 96.2 | inactive | inactive |  |  | 
4 | C=CCc1ccc(OCC(Cn2ccnc2)OCc2ccc(Cl)cc2)c(OC)c1 (configuration not stated) | inactive | inactive |  |  | inactive | 33.6 | inactive | inactive | 18.9 (≈ 7.8 µg/mL) | 36.8 (≈ 15.2 µg/mL) | selectivity ratio [10]: 1.8; selectivity ratio [11]: 0.9
5 | CCCc1ccc(OCC(Cn2ccnc2)OC(=O)c2ccc(Cl)cc2)c(OC)c1 (configuration not stated) |  | inactive |  |  | inactive | 35.5 | inactive | inactive | 72.7 (≈ 31.2 µg/mL) | 36.4 (≈ 15.6 µg/mL) | selectivity ratio [12]: 0.9; Ratio ([Candida] auris [13]): 2; MIC ([Candida] auris [14]): 36.4 µM (≈ 15.6 µg/mL); selectivity ratio [10]: 0.5; Ratio ([Candida] auris [15]): >5; selectivity ratio [11]: 0.9
6 | CCCc1ccc(OCC(Cn2cncn2)OCc2ccc(Cl)cc2)c(OC)c1 (configuration not stated) | inactive | inactive | inactive | inactive | inactive | 40.1 | inactive | inactive |  |  | 
7 | CCCc1ccc(OCC(Cn2ccnc2)OCc2ccc(Cl)cc2)c(OC)c1 (configuration not stated) |  |  |  |  |  | 44.2 |  |  | 18.8 (≈ 7.8 µg/mL) | 37.6 (≈ 15.6 µg/mL) | selectivity ratio [12]: 0.6; inhibition (INH) [16]: Active; MIC ([Candida] auris [14]): 75.3 µM (≈ 31.2 µg/mL); selectivity ratio [17]: 1.2; selectivity ratio [10]: 2.4; Ratio ([Candida] auris [15]): >2; MIC (Candida tropicalis [18]): 75.3 µM (≈ 31.2 µg/mL); Ratio (Candida albicans [19]): 8; selectivity ratio [20]: 0.6; MIC (Candida parapsilosis [21]): 75.3 µM (≈ 31.2 µg/mL); selectivity ratio [11]: 1.2; selectivity ratio [22]: 0.6; MIC (Pichia kudriavzevii [23]): 37.6 µM (≈ 15.6 µg/mL); selectivity ratio [24]: 2.3; MIC (Candida albicans [25]): 18.8 µM (≈ 7.8 µg/mL); inhibition (INH) [26]: Active
8 | C=CCc1ccc(OCC(Cn2ccnc2)OC(=O)c2ccc(Cl)cc2)c(OC)c1 (configuration not stated) | inactive |  |  |  | inactive | 129 |  |  | 73.2 (≈ 31.2 µg/mL) | 36.5 (≈ 15.6 µg/mL) | selectivity ratio [10]: 1.8; MIC (Candida tropicalis [18]): 73.2 µM (≈ 31.2 µg/mL); Ratio (Candida albicans [19]): 32; selectivity ratio [20]: 1.8; MIC (Candida parapsilosis [21]): 73.2 µM (≈ 31.2 µg/mL); selectivity ratio [11]: 3.5; selectivity ratio [22]: 1.8; selectivity ratio [24]: 28.2; MIC (Candida albicans [25]): 4.6 µM (≈ 1.96 µg/mL); inhibition (INH) [26]: Active
9 | CCCc1ccc(OCC(Cn2cncn2)OC(=O)c2ccc(Cl)cc2)c(OC)c1 (configuration not stated) | inactive | inactive | inactive | inactive | inactive | 35.4 | inactive | inactive |  |  | 
10 | OC(Cn1cncn1)(Cn1cncn1)c1ccc(F)cc1F [FLUCONAZOLE] |  |  |  |  |  |  |  |  | 13.1 (≈ 4.01 µg/mL) | 13.1 (≈ 4.01 µg/mL) | inhibition (INH) [16]: Active; MIC ([Candida] auris [14]): 209 µM (≈ 64 µg/mL); MIC (Candida tropicalis [18]): 0.8 µM (≈ 0.245 µg/mL); MIC (Candida parapsilosis [21]): 3.3 µM (≈ 1.01 µg/mL); MIC (Pichia kudriavzevii [23]): 104 µM (≈ 32 µg/mL); MIC (Candida albicans [25]): 1.6 µM (≈ 0.49 µg/mL); inhibition (INH) [26]: Active
11 | C=CCc1ccc(OCC(O)Cn2ccnc2)c(OC)c1 (configuration not stated) | inactive | inactive | inactive | inactive | inactive | 644 | inactive | inactive |  |  | 
12 | C=CCc1ccc(OCC(O)Cn2cncn2)c(OC)c1 (configuration not stated) | inactive | inactive | inactive | inactive | inactive | 541 | inactive | inactive |  |  | 
13 | Clc1ccc(COC(Cn2ccnc2)c2ccc(Cl)cc2Cl)c(Cl)c1 (configuration not stated) [MICONAZOLE] |  |  |  |  |  |  |  |  | 9.4 (≈ 3.91 µg/mL) | 1.2 (≈ 0.499 µg/mL) | MIC ([Candida] auris [14]): 74.9 µM (≈ 31.2 µg/mL); MIC (Candida tropicalis [18]): 31.2 µM (≈ 13 µg/mL); MIC (Candida parapsilosis [21]): 7.8 µM (≈ 3.25 µg/mL); MIC (Pichia kudriavzevii [23]): 18.7 µM (≈ 7.78 µg/mL); MIC (Candida albicans [25]): 150 µM (≈ 62.5 µg/mL)
14 | C=CCc1ccc(OCC(Cn2cncn2)OCc2ccc(Cl)cc2)c(OC)c1 (configuration not stated) | inactive | inactive | inactive | inactive | inactive | 52.9 | inactive | inactive |  |  | 
